Like-named read-outs stand apart in the source and are kept apart here. Residues, ends and D or L forms follow the SMILES beside them.

This is an account of results in US7384911B2, “Peptides having antimicrobial properties and compositions containing them, notably for the preservation of foodstuffs” (priority 2002, dated 2008).

One assay relates to Escherichia coli 1106. The format is cell-based. How it is done: Strains of microorganisms capable of growing at such pH values were selected in advance: these were Pseudomonas aeruginosa and Escherichia coli 1106 (Gram-negative bacteria). The tests of antimicrobial activity were performed in liquid medium in microtitration plates (for the detailed protocol see example 2.4 as well as Hétru and Bulet, 1997). The pH of the liquid medium used was adjusted with hydrochloric acid for each test.
Two strains of Gram-negative bacteria (Pseudomonas aeruginosa and Escherichia coli 1106) capable of growing in the range of pH values to be tested were selected. The range of pH values tested corresponded to the pH variations observed in the well preserved stomach content of the incubating king penguin (Thouzeau et al., 2003).

The test system of another assay is E. coli 1106. The format is cell-based, Escherichia coli. Conditions: interval [a]-[b], tested spheniscin-2 0.2-100 μM, MSI-94 0.2-10 μM. How it is done: (§1) The bacteria to be tested were suspended in a suitable nutritive medium of the “poor broth” type corresponding to a solution of bactotryptone at 10 g/l with the addition of NaCl 5 g/l in ultrapure water.
(§2) Antimicrobial activities were detected by a growth inhibition test in microtitration plates (Hétru and Bulet, 1997). One deposited […] of each fraction collected in mictrotitration plates in the presence of 90 μl of culture medium containing the microorganisms (at a final concentration equivalent to 1 mDO at 600 nm).
(§3) For the bacteria and the yeast, incubation was performed at 30° C. for 12-24 h under agitation. The growth of the microorganisms was measured by monitoring the absorbance at 600 nm by means of a spectrophotometer reader of microtitration plates.
(§4) The antimicrobial activities expressed in minimal inhibitory concentration (MIC) of spheniscin 2 (concentrations comprised between 0.2 μM and 100 μM) were determined against bacteria, yeasts and fungi using a growth inhibition test in liquid medium in microtitration plates (for the detailed protocol see example 2.4 as well as Hétru and Bulet, 1997). […]

The next assay concerns B. cereus ATCC 11778. The format is cell-based, Bacillus cereus. Conditions: interval [a]-[b], tested spheniscin-2 0.2-100 μM, MSI-94 0.2-10 μM. The procedure:
as §1, §2, §3, §4

For the next assay, the system named is Bacillus subtilis. The assay can be described thus: Bactericidal or bacteriostatic effect, spreading on Petri dishes and counting colonies. The format is cell-based. Conditions: colonies counted after 24 h of incubation, Yes/No. How it is done: (§5) The bactericidal or bacteriostatic effect of the peptide was determined by spreading on Petri dishes and counting the colonies present after 24 h of incubation.

In another assay the test system is Escherichia coli SBS 363. The description is as above. The format is cell-based. Conditions: colonies counted after 24 h of incubation, Yes/No. How it is done:
as §5

The next assay deals with Klebsiella pneumoniae. Described as above. Format: cell-based. Conditions: colonies counted after 24 h of incubation, Yes/No. The procedure: as §5
The test system of a further assay is B. megaterium. Described as above. The format is cell-based. Conditions: colonies counted after 24 h of incubation, Yes/No. The procedure: as §5
A further assay relates to Salmonella typhimurium. The description is as above. The format is cell-based. Conditions: colonies counted after 24 h of incubation, Yes/No. The procedure: as §5
A further assay relates to Micrococcus luteus. The assay is described as above. The format is cell-based. Conditions: colonies counted after 24 h of incubation, Yes/No. How it is done:
as §5

A further assay concerns Nocardia asteroides. The description is as above. The format is cell-based. Conditions: colonies counted after 24 h of incubation, Yes/No. How it is done:
as §5

A further assay concerns Staphylococcus aureus. The description is as above. Conditions: colonies counted after 24 h of incubation, Yes/No. Format: cell-based. The procedure:
as §5

A further assay deals with S. haemolyticus. Described as above. The format is cell-based. Conditions: colonies counted after 24 h of incubation, Yes/No. The procedure:
as §5

For assay [1], the system named is Vibrio metshnikovii NCTC 8483. The description is as above. The format is cell-based. Conditions: colonies counted after 24 h of incubation, Yes/No. The procedure:
as §5

Assay [2] deals with Pseudomonas aeruginosa ATCC 82118. The description is as above. Format: cell-based. Conditions: colonies counted after 24 h of incubation, Yes/No. How it is done:
as §5

Assay [3] relates to V. anguillarum ATCC 19264. The description is as above. The format is cell-based. Conditions: colonies counted after 24 h of incubation, Yes/No. How it is done: as §5
The test system of assay [4] is S. saprophyticus. Format: cell-based, Staphylococcus saprophyticus. Conditions: interval [a]-[b], tested spheniscin-2 0.2-100 μM, MSI-94 0.2-10 μM. How it is done: as §1, §2, §3, §4
The test system of another assay is Aspergillus fumigatus. The assay is described as follows: Effect on growth of Aspergillus fumigatus, observation with electronic microscope. Format: cell-based. Conditions: incubation with 6 μM of spheniscin-2. From the text:
(FIG. 9A) Control growth: the aspergillar heads terminated by the spores are clearly visible (X 400). […] The effect of spheniscin-2 on A. fumigatus is consequently not of the direct fungicidal type on the spores but is manifested by a halt of growth by inhibition of the reproduction of the fungus because there is no longer formation of aspergillar heads, structures implicated in the reproduction/proliferation process of this fungus.

Assay [5] relates to Vibrio metshnikovii NCTC 8483. The assay is described as follows: MIC, growth inhibition test in liquid medium in microtitration plates. The format is cell-based. Conditions: interval [a]-[b], tested spheniscin-2 0.2-100 μM. How it is done: as §1, §2, §3, §4
Assay [6] has as its system V. anguillarum ATCC 19264. The description is as above. The format is cell-based. Conditions: interval [a]-[b], tested spheniscin-2 0.2-100 μM. The procedure: as §1, §2, §3, §4
Assay [7] deals with S. saprophyticus. The assay can be described thus: Bactericidal or bacteriostatic effect, spreading on Petri dishes and counting colonies. The format is cell-based, Staphylococcus saprophyticus. Conditions: colonies counted after 24 h of incubation, Yes/No. The procedure: as §5
The test system of the next assay is C. albicans IHEM 8060. The format is cell-based, Candida albicans. Conditions: interval [a]-[b], tested spheniscin-2 0.2-100 μM, MSI-94 0.2-10 μM. The procedure:
The yeast strain C. albicans to be tested was incubated in a suitable culture medium of the “Sabouraud” type.
as §2, §3
The antimicrobial activities expressed in minimal inhibitory concentration (MIC) of spheniscin 2 (concentrations comprised between 0.2 μM and 100 μM) were determined against bacteria, yeasts and fungi using a growth inhibition test in liquid medium in microtitration plates (for the detailed protocol see example 2.4 as well as Hétru and Bulet, 1997).
The minimal growth inhibitory concentration (MIC) corresponds to the interval [a]-[b] in which [a] is the strongest concentration tested for which the microorganism grows and [b] is the weakest concentration tested starting at which there is 100% inhibition of growth of the microorganism (Casteels and Tempst, 1994). […]

By MIC is commonly meant the lowest concentration found to suppress growth. Higher therefore signals a need for much substance. Regarding `CC[C@H](C)[C@@H]1NC(=O)[C@@H]2CCCN2C(=O)[C@H]([C@@H](C)CC)NC(=O)[C@H](CO)NC(=O)[C@@H]2CCCN2C(=O)[C@H](Cc2ccccc2)NC(=O)[C@H](CCCNC(=N)N)NC(=O)[C@@H]2CSSC[C@@H](C(=O)N[C@@H](CCCNC(=N)N)C(=O)N[C@@H](CCCNC(=N)N)C(=O)N[C@H](C(=O)N[C@@H](Cc3c[nH]c4ccccc34)C(=O)O)C(C)C)NC(=O)[C@@H]3CSSC[C@H](NC(=O)[C@H](CC(C)C)NC(=O)CNC(=O)[C@H](Cc4ccccc4)NC(=O)[C@@H](N)CO)C(=O)N[C@@H](CCCNC(=N)N)C(=O)N[C@@H](CC(C)C)C(=O)N[C@@H](CCCNC(=N)N)C(=O)N[C@@H](CCCNC(=N)N)C(=O)NCC(=O)N[C@@H](Cc4ccccc4)C(=O)N[C@@H](CSSC[C@H](NC(=O)[C@H](CCCNC(=N)N)NC(=O)CNC1=O)C(=O)N[C@@H](CO)C(=O)N[C@@H](CCCNC(=N)N)C(=O)N[C@@H](Cc1ccccc1)C(=O)N[C@@H](C(C)C)C(=O)N[C@@H](CCC(N)=O)C(=O)N3)C(=O)N[C@@H](C)C(=O)N[C@@H](CCCNC(=N)N)C(=O)NCC(=O)N[C@@H](CCCNC(=N)N)C(=O)N2` [spheniscin-2] (HELM PEPTIDE1{S.F.G.L.C.R.L.R.R.G.F.C.A.R.G.R.C.R.F.P.S.I.P.I.G.R.C.S.R.F.V.Q.C.C.R.R.V.W}$PEPTIDE1,PEPTIDE1,5:R3-33:R3|PEPTIDE1,PEPTIDE1,12:R3-27:R3|PEPTIDE1,PEPTIDE1,17:R3-34:R3$$$V2.0; N-terminus and C-terminus assumed), the figures for the “MIC (μM) after 48 h of incubation” value against Escherichia coli 1106 (pH 6.1) and against Escherichia coli 1106 (pH 7.2) were 6 to 12 µM and 1.5 to 3 µM, respectively. Besides, the MIC with E. coli 1106 fell in the range of 1.5 to 3 µM; in the assay with B. cereus ATCC 11778, 3 to 6 µM; in the assay with S. saprophyticus [4] it was 1.5 to 3 µM; in assay [5], 25 to 50 µM; in assay [6] it was 25 to 50 µM; in the assay on C. albicans IHEM 8060 it was 50 to 100 µM. Besides, the “Bactericidal effect of spheniscin-2” value was “Yes” with Bacillus subtilis; “No” in the assay on Escherichia coli SBS 363; “No” in the assay with Klebsiella pneumoniae; “Yes” in the assay with B. megaterium; “No” in the assay with Salmonella typhimurium; “Yes” with Micrococcus luteus. In addition, the “Bactericidal effect of spheniscin-2” value is “Yes” in the assay with Nocardia asteroides; “Yes” in the assay with Staphylococcus aureus; “Yes” in the assay with S. haemolyticus; “Yes” in [1]; “No” in assay [2]; “No” in assay [3]. Also, the “Bactericidal effect of spheniscin-2” value with S. saprophyticus [7] is recorded as “No”. The “Effect on the growth of Aspergillus fumigatus (FIG. 9B)” value with Aspergillus fumigatus was “disappearance of the aspergillar heads”.
